From the OligoGym collection come the findings set out here.

Values joined by “and” are separate entries in the source; they are usually repeats but may differ in a detail not shown here. Equal values may be shown once. HELM strings list units from the 5' end as sugar, base in round brackets, then linkage (d deoxyribose, r ribose, m 2'-O-methyl, p phosphodiester). Methylation of C is not given here. [moe] = 2'-O-(2-methoxyethyl) (MOE); [cEt] = constrained ethyl (cEt); [sp] = phosphorothioate linkage

This series concerns the target HBV. To be noted: ASO.

Regarding “RNA1{[moe](C)[sp].[cEt](G)[sp].d(C)[sp].d(A)[sp].d(G)[sp].d(T)[sp].d(A)[sp].d(T)[sp].d(G)[sp].d(G)[sp].d(A)[sp].d(T)[sp].[cEt](C)[sp].[moe](G)[sp].[cEt](G)[sp].[moe](C)}$$$$V2.0”, the target mRNA inhibition (HepG2, 0.0092593 µM) was 22%; the target mRNA inhibition (HepG2, 0.0277778 µM) is 49%; the target mRNA inhibition (HepG2, 0.07 µM) is 83% and 92%; the target mRNA inhibition (HepG2, 0.0833333 µM) was found to be 82%; the target mRNA inhibition (HepG2, 0.25 µM) came out at 91%.

Regarding “RNA1{[moe](C)[sp].[cEt](T)[sp].[cEt](A)[sp].d(G)[sp].d(T)[sp].d(A)[sp].d(A)[sp].d(A)[sp].d(C)[sp].d(T)[sp].d(G)[sp].d(A)[sp].d(G)[sp].[cEt](C)[sp].[cEt](C)[sp].[moe](A)}$$$$V2.0”, the target mRNA inhibition is 33% (HepG2, 0.0092593 µM); 49% (HepG2, 0.0277778 µM); 76% and 71% (HepG2, 0.07 µM); 71% (HepG2, 0.0833333 µM); 88% (HepG2, 0.25 µM).

In the case of “RNA1{[moe](C)[sp].[cEt](T)[sp].[cEt](G)[sp].d(A)[sp].d(G)[sp].d(G)[sp].d(C)[sp].d(C)[sp].d(C)[sp].d(A)[sp].d(C)[sp].d(T)[sp].d(C)[sp].[cEt](C)[sp].[cEt](C)[sp].[moe](A)}$$$$V2.0”, the target mRNA inhibition was 58% (HepG2, 0.0092593 µM); 83% (HepG2, 0.0277778 µM); 59% and 84% (HepG2, 0.07 µM); 90% (HepG2, 0.0833333 µM); 90% (HepG2, 0.25 µM).

As to “RNA1{[moe](C)[sp].[cEt](T)[sp].[cEt](G)[sp].d(G)[sp].d(A)[sp].d(G)[sp].d(C)[sp].d(C)[sp].d(A)[sp].d(C)[sp].d(C)[sp].d(A)[sp].d(G)[sp].[cEt](C)[sp].[cEt](A)[sp].[moe](G)}$$$$V2.0”, the target mRNA inhibition (HepG2, 0.07 µM) is 60% and 45%.

“RNA1{[moe](C)[sp].[moe](A)[sp].[moe](A)[sp].[moe](T)[sp].d(T)[sp].d(T)[sp].d(A)[sp].d(T)[sp].d(G)[sp].d(C)[sp].d(C)[sp].d(T)[sp].d(A)[sp].[moe](C)[sp].[moe](A)[sp].[moe](G)[sp].[moe](C)}$$$$V2.0”: the target mRNA inhibition (HepG2, 0.07 µM) is 34% and 25%.

In the case of “RNA1{[moe](C)[sp].[moe](A)[sp].[moe](C)[sp].[moe](T)[sp].[moe](A)[sp].[moe](G)[sp].d(T)[sp].d(A)[sp].d(A)[sp].d(A)[sp].d(C)[sp].d(T)[sp].d(G)[sp].d(A)[sp].d(G)[sp].[moe](C)[sp].[moe](C)}$$$$V2.0”, the target mRNA inhibition was 12% (HepG2, 0.0092593 µM); 40% (HepG2, 0.0277778 µM); 87% and 72% (HepG2, 0.07 µM); 42% (HepG2, 0.0833333 µM); 65% (HepG2, 0.25 µM).

As for “RNA1{[moe](C)[sp].[moe](A)[sp].[moe](C)[sp].[moe](T)[sp].d(A)[sp].d(G)[sp].d(T)[sp].d(A)[sp].d(A)[sp].d(A)[sp].d(C)[sp].d(T)[sp].d(G)[sp].[moe](A)[sp].[moe](G)[sp].[moe](C)}$$$$V2.0”, under “HepG2, 0.07 µM”, the target mRNA inhibition was 56% and 50%.

Turning to “RNA1{[moe](C)[sp].[moe](A)[sp].[moe](G)[sp].[moe](A)[sp].[moe](G)[sp].[moe](G)[sp].d(T)[sp].d(G)[sp].d(A)[sp].d(A)[sp].d(G)[sp].d(C)[sp].d(G)[sp].d(A)[sp].d(A)[sp].[moe](G)[sp].[moe](T)}$$$$V2.0”, the target mRNA inhibition (HepG2, 0.07 µM) is 81% and 58%.

For “RNA1{[moe](C)[sp].[moe](A)[sp].[moe](G)[sp].[moe](A)[sp].d(G)[sp].d(G)[sp].d(T)[sp].d(G)[sp].d(A)[sp].d(A)[sp].d(G)[sp].d(C)[sp].d(G)[sp].[moe](A)[sp].[moe](A)[sp].[moe](G)}$$$$V2.0”, the target mRNA inhibition (HepG2, 0.07 µM) was 47% and 50%.

“RNA1{[moe](C)[sp].[moe](A)[sp].d(A)[sp].d(T)[sp].d(T)[sp].d(T)[sp].d(A)[sp].d(T)[sp].d(G)[sp].d(C)[sp].d(C)[sp].[moe](T)[sp].[moe](A)[sp].[moe](C)[sp].[moe](A)[sp].[moe](G)}$$$$V2.0”: the target mRNA inhibition (HepG2, 0.07 µM) was 27% and 25%.

On to “RNA1{[moe](C)[sp].[moe](A)[sp].d(C)[sp].d(T)[sp].d(A)[sp].d(G)[sp].d(T)[sp].d(A)[sp].d(A)[sp].d(A)[sp].d(C)[sp].[moe](T)[sp].[moe](G)[sp].[moe](A)[sp].[moe](G)[sp].[moe](C)[sp].[moe](C)}$$$$V2.0”, for which, where the note is “HepG2, 0.07 µM”, the target mRNA inhibition is 73% and 66%.

On to “RNA1{[moe](C)[sp].[moe](A)[sp].d(C)[sp].d(T)[sp].d(A)[sp].d(G)[sp].d(T)[sp].d(A)[sp].d(A)[sp].d(A)[sp].d(C)[sp].[moe](T)[sp].[moe](G)[sp].[moe](A)[sp].[moe](G)[sp].[moe](C)}$$$$V2.0”, for which the target mRNA inhibition (HepG2, 0.07 µM) was 52% and 53%.

Consider “RNA1{[moe](C)[sp].[moe](A)[sp].d(G)[sp].d(A)[sp].d(G)[sp].d(G)[sp].d(T)[sp].d(G)[sp].d(A)[sp].d(A)[sp].d(G)[sp].[moe](C)[sp].[moe](G)[sp].[moe](A)[sp].[moe](A)[sp].[moe](G)}$$$$V2.0”, for which the target mRNA inhibition (HepG2, 0.07 µM) was 35% and 36%.

Take “RNA1{[moe](C)[sp].[moe](C)[sp].[moe](A)[sp].[moe](C)[sp].[moe](T)[sp].d(G)[sp].d(A)[sp].d(A)[sp].d(C)[sp].d(A)[sp].d(A)[sp].d(A)[sp].d(T)[sp].d(G)[sp].[moe](G)[sp].[moe](C)}$$$$V2.0”: the target mRNA inhibition (HepG2, 0.07 µM) was 55% and 44%.

Take “RNA1{[moe](C)[sp].[moe](C)[sp].[moe](A)[sp].[moe](C)[sp].d(T)[sp].d(G)[sp].d(A)[sp].d(A)[sp].d(C)[sp].d(A)[sp].d(A)[sp].d(A)[sp].d(T)[sp].[moe](G)[sp].[moe](G)[sp].[moe](C)}$$$$V2.0”: the target mRNA inhibition (HepG2, 0.07 µM) is 57% and 68%.

For “RNA1{[moe](C)[sp].[moe](C)[sp].[moe](A)[sp].d(A)[sp].d(T)[sp].d(T)[sp].d(T)[sp].d(A)[sp].d(T)[sp].d(G)[sp].d(C)[sp].d(C)[sp].d(T)[sp].[cEt](A)[sp].[cEt](C)[sp].[cEt](A)}$$$$V2.0”, the target mRNA inhibition (HepG2, 0.07 µM) is 37% and 34%.

For the substance “RNA1{[moe](C)[sp].[moe](C)[sp].[moe](G)[sp].[moe](C)[sp].[moe](A)[sp].d(G)[sp].d(T)[sp].d(A)[sp].d(T)[sp].d(G)[sp].d(G)[sp].d(A)[sp].d(T)[sp].d(C)[sp].[moe](G)[sp].[moe](G)[sp].[moe](C)}$$$$V2.0”, the target mRNA inhibition (HepG2, 0.0092593 µM) stood at 5%; the target mRNA inhibition (HepG2, 0.0277778 µM) was 38%; the target mRNA inhibition (HepG2, 0.07 µM) is 86% and 76%; the target mRNA inhibition (HepG2, 0.0833333 µM) amounted to 65%; the target mRNA inhibition (HepG2, 0.25 µM) came out at 86%.

Regarding “RNA1{[moe](C)[sp].[moe](C)[sp].[moe](G)[sp].[moe](C)[sp].d(A)[sp].d(G)[sp].d(T)[sp].d(A)[sp].d(T)[sp].d(G)[sp].d(G)[sp].d(A)[sp].d(T)[sp].[moe](C)[sp].[moe](G)[sp].[moe](G)[sp].[moe](C)}$$$$V2.0”, the target mRNA inhibition by setting is: (HepG2, 0.0092593 µM) 0%; (HepG2, 0.0277778 µM) 38%; (HepG2, 0.07 µM) 87% and 74%; (HepG2, 0.0833333 µM) 69%; (HepG2, 0.25 µM) 86%.

Take “RNA1{[moe](C)[sp].[moe](C)[sp].[moe](G)[sp].[moe](C)[sp].d(A)[sp].d(G)[sp].d(T)[sp].d(A)[sp].d(T)[sp].d(G)[sp].d(G)[sp].d(A)[sp].d(T)[sp].[moe](C)[sp].[moe](G)[sp].[moe](G)}$$$$V2.0”: the target mRNA inhibition (HepG2, 0.07 µM) is 76% and 71%.

“RNA1{[moe](C)[sp].[moe](C)[sp].[moe](G)[sp].d(C)[sp].d(A)[sp].d(G)[sp].d(T)[sp].d(A)[sp].d(T)[sp].d(G)[sp].d(G)[sp].d(A)[sp].[moe](T)[sp].[moe](C)[sp].[moe](G)[sp].[moe](G)}$$$$V2.0”: the target mRNA inhibition reads like this: (HepG2, 0.0092593 µM) 0%; (HepG2, 0.0277778 µM) 23%; (HepG2, 0.07 µM) 75% and 76%; (HepG2, 0.0833333 µM) 56%; (HepG2, 0.25 µM) 79%.

“RNA1{[moe](C)[sp].[moe](G)[sp].[moe](A)[sp].d(A)[sp].d(C)[sp].d(C)[sp].d(A)[sp].d(C)[sp].d(T)[sp].d(G)[sp].d(A)[sp].d(A)[sp].[moe](C)[sp].[moe](A)[sp].[moe](A)[sp].[moe](A)}$$$$V2.0”: for the setting “HepG2, 0.07 µM”, the target mRNA inhibition is 48% and 28%.

For “RNA1{[moe](C)[sp].[moe](G)[sp].[moe](G)[sp].[moe](G)[sp].d(C)[sp].d(A)[sp].d(A)[sp].d(C)[sp].d(A)[sp].d(T)[sp].d(A)[sp].d(C)[sp].d(C)[sp].[moe](T)[sp].[moe](T)[sp].[moe](G)}$$$$V2.0”, the target mRNA inhibition (HepG2, 0.07 µM) is 48% and 65%.

With “RNA1{[moe](C)[sp].[moe](G)[sp].[moe](T)[sp].[moe](G)[sp].[moe](C)[sp].[moe](A)[sp].d(G)[sp].d(A)[sp].d(G)[sp].d(G)[sp].d(T)[sp].d(G)[sp].d(A)[sp].d(A)[sp].d(G)[sp].[moe](C)[sp].[moe](G)}$$$$V2.0”, where the note is “HepG2, 0.07 µM”, the target mRNA inhibition was 81% and 64%.

For the substance “RNA1{[moe](C)[sp].[moe](G)[sp].[moe](T)[sp].d(G)[sp].d(C)[sp].d(A)[sp].d(G)[sp].d(A)[sp].d(G)[sp].d(G)[sp].d(T)[sp].d(G)[sp].d(A)[sp].[cEt](A)[sp].[cEt](G)[sp].[cEt](C)}$$$$V2.0”, the target mRNA inhibition (HepG2, 0.07 µM) was 72% and 60%.

For “RNA1{[moe](C)[sp].[moe](G)[sp].d(A)[sp].d(A)[sp].d(C)[sp].d(C)[sp].d(A)[sp].d(C)[sp].d(T)[sp].d(G)[sp].d(A)[sp].[moe](A)[sp].[moe](C)[sp].[moe](A)[sp].[moe](A)[sp].[moe](A)[sp].[moe](T)}$$$$V2.0”, the target mRNA inhibition (HepG2, 0.07 µM) was 55% and 36%.

For the substance “RNA1{[moe](C)[sp].[moe](G)[sp].d(A)[sp].d(A)[sp].d(C)[sp].d(C)[sp].d(A)[sp].d(C)[sp].d(T)[sp].d(G)[sp].d(A)[sp].[moe](A)[sp].[moe](C)[sp].[moe](A)[sp].[moe](A)[sp].[moe](A)}$$$$V2.0”, the target mRNA inhibition (HepG2, 0.07 µM) was 37% and 23%.

Turning to “RNA1{[moe](C)[sp].[moe](G)[sp].d(C)[sp].d(A)[sp].d(G)[sp].d(T)[sp].d(A)[sp].d(T)[sp].d(G)[sp].d(G)[sp].d(A)[sp].[moe](T)[sp].[moe](C)[sp].[moe](G)[sp].[moe](G)[sp].[moe](C)}$$$$V2.0”, the target mRNA inhibition reads like this: (HepG2, 0.0092593 µM) 6%; (HepG2, 0.0277778 µM) 31%; (HepG2, 0.07 µM) 76% and 71%; (HepG2, 0.0833333 µM) 56%; (HepG2, 0.25 µM) 80%.
